In one data set the test system is Gbe^ys/ys mice. As to the kind of experiment: Blood metabolic panel in Gbe^ys/ys mice. The data set is classed as in vivo. The method, then: FIGS. 3A-3I include a graph of the effect of Compound 1 on in vivo metabolism; mice were monitored by the Promethion High-Definition Behavioral Phenotyping System (Sable Instruments, Inc.) over a 24 hr period. Effective mass was calculated by power of 0.75. Data are mean±SEM from n=11 9 months old mice in the wt. control vehicle arm, n=6 9 months old mice in the GBE^ys/ys vehicle arm and n=7 9 months old mice in the Gbe^ys/ys 144DG11 (Compound 1)-treated arm. All injections were from the age of 4 months. […] Blood metabolic panel based on n=5, 9.5 months old mice treated as indicated (3I). Blood glucose was increased, and blood triglycerides decreased in Gbe^ys/ys […] by Compound 1 (p<0.05, Student's t-tests). *p<0.05 v wt. controls, #p<0.05 v GBE^ys/ys vehicle treated mice;
The inventors further tested whether Compound 1 is able to correct the hypoglycemia and hyperlipidemia observed in Gbe^ys/ys mice. Such an effect is expected from an agent capable of inducing the catabolism of liver glycogen with an ensuing rise in blood glucose. […] Muscle (creatine kinase) and liver (alanine transferase) functions were not affected by this treatment (FIG. 3I).

Another data set concerns the target T1, luminal portion of LAMP1 (Homo sapiens, UniProt P11279).
T1 sequence (P11279 29-382 limits assumed): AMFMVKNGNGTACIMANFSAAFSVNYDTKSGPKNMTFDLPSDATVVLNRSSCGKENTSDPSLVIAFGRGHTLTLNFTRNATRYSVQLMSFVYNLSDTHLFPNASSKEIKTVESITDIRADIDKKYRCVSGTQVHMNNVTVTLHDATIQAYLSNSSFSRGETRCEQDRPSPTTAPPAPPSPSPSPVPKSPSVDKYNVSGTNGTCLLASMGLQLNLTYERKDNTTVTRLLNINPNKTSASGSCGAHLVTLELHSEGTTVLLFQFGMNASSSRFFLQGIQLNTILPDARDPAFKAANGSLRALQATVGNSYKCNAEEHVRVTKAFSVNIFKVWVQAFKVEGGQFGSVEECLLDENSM
As to the kind of experiment: Surface plasmon resonance (SPR). Type of data set: binding. An excerpt:
FIGS. 5A-5E include images of experiments showing hetero-assembly forms around Compound 1 and not around endogenous molecules as shown by the liquid crystals formed in experiments 1-3 (5A); image of STRING network of targets at the interactome of Compound 1 (5B); cellular thermal shift assay (CETSA) of different targets of the Compound 1 hetero-assembly (5C); surface plasmon resonance sensograms of binding of Compound 1 to LAMP1 (5D); sensogram experiments consisting of association and dissociation at the indicated concentration ranges and pH values were then conducted.
The inventors have investigated the mechanism of action of 144DG11. To that end, the inventors first decided to determine its molecular target. Nematic protein organization technique (NPOT, Inoviem, Ltd.) was applied to homogenates of APBD patient fibroblasts. The NPOT analysis has discovered protein hetero assemblies uniquely generated around 144DG11 only when it was added to the cell homogenates (FIG. 5A). The next step in this analysis has identified the interactome of protein targets interacting with 144DG11 in APBD patients' fibroblasts. […] Moreover, the inventors have tested by cellular thermal shift assay the specific interaction of 144DG11 with 6 of the 8 targets discovered by NPOT. […] This finding relates to a novel pathogenic hypothesis connecting cellular glycogen overload with glycogen trafficking to lysosomes via Starch Binding Domain containing Protein 1. To validate 144DG11's interaction with LAMP1, the inventors have used surface plasmon resonance (SPR) technology. […] The inventors hypothesized that this slow rate of association could be explained by inhibited diffusion of 144DG11 due to the bulky oligosaccharides at the glycosylation sites. Therefore, the inventors have repeated the SPR experiments with a chemically deglycosylated luminal LAMP1 domain. […] The inventors have further investigated 144DG11 binding to LAMP1 by structure-based computational docking. In the search for a putative binding site for Compound 1 in LAMP1, the inventors have analyzed the N- and C-terminal subdomains of its luminal domain (residues A29-R195 and S217-D378, respectively), which have a similar topology. These domains were modeled and computationally docked against decoys to Compound 1 at the intralysosomal pH 5 based on the known crystal structure of mouse LAMP1 C-terminal domain (PDB ID 5gv0). […] However, they might still affect Compound 1 diffusion.

Data set [1] concerns microglia cells from brains of 5XFAD mice. As to the kind of experiment: LC3, p62 and PAS staining of microglia from AD model. The data set is classed as cell-based. The note with it: 50 μM, 24 h. The protocol: FIGS. 19A-19B include fluorescent micrographs showing microglia cells which were isolated from the brains of AD modeling 5XFAD mice by CD11b magnetic beads. Microglia were then incubated for 24 h with (treated), or without (untreated) 50 μM 144DG11, fixed and stained for the autophagic substrates LC3 (19A) and p62 (19B) and for glycogen by PAS, all as indicated. Reduction in the levels of both LC3 and p62 indicate induction of autophagy which degrades these substrates.
Being the most pro-inflammatory tissue in the brain, microglia are currently at the epicenter of innovative therapeutic research for AD. Moreover, as neuroinflammation is now accepted as the main pathogenic factor in AD and as activation of microglia autophagy and mitophagy is a leading therapeutic strategy (see, for instance, Eshraghi et al., (2021)), 144DG11 holds promise as a potential AD therapeutic.

In data set [2] the test system is primary human non-small-cell lung cancer (NSCLC) cells. As to the kind of experiment: LC3, p62 and PAS staining of lung cancer cells. Type of data set: cell-based. The protocol: FIGS. 20A-20B include fluorescent micrographs showing primary non-small cell-lung cancer. Cells were treated and stained for the autophagic substrates LC3 (20A) and p62 (20B) as in 19A-19B.
NAD+ and NADH are key precursors for the electron transfer chain, TCA cycle, glycolysis, amino acid synthesis, fatty acid synthesis, and nucleotide synthesis. The NAD+/NADH ratio reports the extent of overall catabolism and the balance between glycolysis and OxPhos. The increase in the NAD+/NADH ratio means acceleration of electron flow in the mitochondrial electron transport chain (note, not mitochondrial ATP production) and of glycolysis to better manage metabolic demands. Furthermore, Sirt1 induction, often associated with increased NAD+/NADH ratio, is a well-documented and innovative anti-aging, calorie restriction-mimic and anti-cancer therapeutic strategy (see for example Hyun et al., (2020)). Thus, the results in Gsd1a cells (FIG. 21), showing induction of the NAD+/NADH ratio, as well as Sirt1, indicate that 144DG11 is a promising therapy for a plethora of different metabolic disorders, aging-related complications, and cancer.

The values that follow come from patent publication US20240139167A1, “LYSOSOME-ASSOCIATED MEMBRANE PROTEIN TARGETING COMPOUNDS AND USES THEREOF” (HADASIT MEDICAL RESEARCH SERVICES AND DEVELOPMENT LTD., priority 2021, published 2024).

Molecules are shown by their SMILES.

On to `COCCN(Cc1sccc1C)C(=O)c1cc(C)nc(O)c1` [Compound 1], for which, in the data set with Gbe^ys/ys mice (9.5 months old mice), the hypoglycemia and hyperlipidemia result is on record as “corrected to control levels”; the “muscle (creatine kinase) and liver (alanine transferase) functions” value is “not affected”. In the data set on Gbe^ys/ys mice (9.5 months old, p<0.05), the blood glucose entry was “increased” and the blood triglycerides entry is on record as “decreased”. Besides, the “binding to LAMP1” value at luminal portion of LAMP1 (cytoplasmic pH 7) is on record as “not at the cytoplasmic pH 7”. Moreover, at luminal portion of LAMP1 (intermediate pH 6), the “binding to LAMP1” value is recorded as “some binding starting”. Moreover, the “binding to LAMP1” value on luminal portion of LAMP1 (lysosomal pH 4.5-5) is “specific and dose-dependent binding”. Besides, the “kon (rate of association)” value on luminal portion of LAMP1 (pH 4.5) is “slow”. Moreover, at luminal portion of LAMP1 (read-out: apparent KD), the Kd was 6.3 mM. Besides, in data set [1], the glycogen levels result was “did not lower glycogen levels”; the “total LC3 and p62” value is recorded as “decrease”. In data set [2], the “autophagy (LC3, p62)” value is listed as “induced autophagy” and the glycogen levels result is on record as “did not lower glycogen levels”.
